Columns and labels:
Type in all cases: in vivo
[1] = test system: syndromes produced by 5-hydroxytryptophan (5-HTP); test: 5-HTP response potentiation test; details: Mus musculus, ip; mice; before dl-5-HTP 90 mg/kg i.v.
Description: It is not possible by experimental means to induce depressions in laboratory animals. In order to evaluate a possible anti depressive effect on new substances biochemical-pharmacological test methods must be resorted to. One such method, which seems to give a good indication of the potential anti depressive effects of the test substances, is described in Europ. J. Pharmacol. 17, 107, 1972. This method involves the measurement of the potentiation of the syndromes produced by 5-hydroxytryptophan (5-HTP) in a laboratory animal.
5-HTP response potantiation test
Inhibition of the uptake of 5-HT potentiates the effects of administered 5-hydroxytryptophan (5-HTP) probably by increasing the amount of 5-HT at the receptor. Three mice are given the test drugs 1 hour (or 4, 24 hours) before dl-5-HTP, 90 mg/kg i.v. 5-HTP alone gives only a weak behavioural syndrome but in pretreated mice there is seen a characteristic behavioural syndrome, which comes within five minutes: tremor, lordosis, abduction of the hindlegs, head-twitches.
The absence or presence of respective syndrome is scored in groups of ten mice. The compound was administered in at least five doses and the quantal responses were analysed by probit analysis and ED50 determined according to the method of Litchfield and Wilcoxon.

[2] = test system: motor activity in mice; test: Motor activity in mice (exploratory activity in locomotion cage); parameters: key to Motor Activity (+ = increase, - = decrease, 0 = no effect): + = increase; - = decrease; 0 = no effect; details: for Motor Activity (+ = increase, - = decrease, 0 = no effect): recorded for ten minutes one hour after administration, compared to control groups
Protocol: The lack of euphoric effects, that is lack of central stimulatory activity, is tested by measuring the motor activity in mice after administration of the test substance.
The exploratory activity of mice was recorded in a locomotion cage in which the movements were counted each time the animals cross-circuits an electrical current in the bottom plate. The activity was recorded for ten minutes one hour after the administration of the drug. The animals were tested individually. Groups of six mice were used and the mice were only used once. The activity was expressed in per cent of the activity of control groups ran simultaneously. The compounds were administered in at least four doses. The increase (+) or decrease (-) of the activity compared to control groups was determined from log dose response curves.

[3] = test system: aggressive behaviour in mice; test: Aggressive behaviour in isolated male mice (antiaggressivity); details: Mus musculus, ip, dose which reduces aggressiveness score by 50%, read-out: Antiaggressive behaviour in mice ED50
Protocol: Potential anxiolytic activity is tested by measuring the antiaggressivity in isolated mice after administration of the test substance. In this test not amphetamine but Valium -- a well-known anxiolytic substance -- is used as a reference.
Aggressive behaviour in mice
Male mice kept isolated for 3 weeks or longer develop an aggressive behavior when caged together. The method used follows that of Valzelli et al. (Europ. J. Pharmacol. 2, 144, 1967), with the exception that 2 mice were tested on each other. The aggressiveness was scored during a 5 min test according to the following schedule:
0 the animals show no interest in each other except occasional nosing
25 frequent vigorous nosing and tail rattling, the animals assume a fighting position and occassionally attack each other -- no more than 3-4 times in the 5 min period
50 tail rattling, powerful attacks -- no more than 10 times in the test period
75 the animals follow their partners, attacking and biting for most of the time
100 attacks over the entire period.
The animals were used for several experiments but with intervals of at least one week. Groups of 10 mice were used.
ED50 is the dose which reduces the aggressiveness score by 50%.

Row | Structure (SMILES) | ED50 [1] [mg/kg] | Motor Activity (+ = increase, - = decrease, 0 = no effect) [2] | ED50 [3] [mg/kg] | central stimulation (in words) [2]
1 | CC(N)Cc1c(Cl)cc(N(C)C)cc1Cl.Cl.Cl (centres unmarked) [2-Cl 6-Cl CH3 CH3 H CH3] | 0.1 | - | > 5 | 
2 | CC(N)Cc1ccccc1 (centres unmarked) [Amphetamine] | > 5 |  |  | pronounced
3 | CC(N)Cc1ccc(N(C)C)cc1Br.Cl.Cl (centres unmarked) [H 2-Br CH3 CH3 H CH3] | 0.1 |  |  | 
4 | Cc1cc(N(C)C)ccc1CC(C)N.Cl.Cl (centres unmarked) [H 2-CH3 CH3 CH3 H CH3] | 0.6 | - | 2.5 to 5 | 
5 | CCC(N)Cc1ccc(N(C)C)cc1Cl (centres unmarked) [H 2-Cl CH3 CH3 H C2 H5] | 0.25 | 0 |  | 
6 | CC(N)Cc1ccc(N(C)C)cc1Cl.Cl.Cl (centres unmarked) [H 2-Cl CH3 CH3 H CH3] | 0.25 | - | 2.5 to 5 | 
7 | CC(N)Cc1ccc(N(C)C)c(Br)c1.Cl.Cl (centres unmarked) [H 3-Br CH3 CH3 H CH3] | 1 |  | > 5 | 
8 | CCN(CC)c1ccc(CC(C)N)cc1 (centres unmarked) [H H C2 H5 C2 H5 H CH3] | 2 | - | 5 to 10 | 
9 | CCN(C)c1ccc(CC(C)N)cc1 (centres unmarked) [H H C2 H5 CH3 H CH3] | 0.7 |  | < 5 | 
10 | CCNc1ccc(CC(C)N)cc1.Cl.Cl (centres unmarked) [H H C2 H5 H H CH3] | 1 |  | 1.25 | 
11 | CC(N)Cc1ccc2c(c1)CCCN2C.Cl.Cl (centres unmarked) [H H CH3 (CH2)3 H CH3, 6-(2-AMINOPROPYL)-1-METHYL-1, 2, 3, 4-TETRAHYDROQUINOLINE DIHYDROCHLORIDE] | 1.5 |  | > 5 | 
12 | CN(C)c1ccc(CC(C)(C)N)cc1.Cl.Cl [H H CH3 CH3 CH3 CH3] | 2.5 | 0 |  | 
13 | CN1C(=O)CN=C(c2ccccc2)c2cc(Cl)ccc21 [Valium, reference compound] |  |  | 2.5 | 
14 | CC(N)Cc1ccc(N)cc1 (centres unmarked) [p-Aminoamphetamine, reference compound] | 11.5 |  |  | 
15 | CC(N)Cc1ccc(Cl)cc1 (centres unmarked) [p-Chloroamphetamine, reference compound] | 0.8 |  | 0.3 | pronounced

Reference: US3996381A, “Amphetamine derivatives” (Astra Lakemedel Aktiebolag, priority 1973, dated 1976)
